Test results taken from ChEMBL document CHEMBL1909046, “DrugMatrix in vitro pharmacology data”.
pIC50, pKi: −log10 of the molar value.

Tests used:
[1] = DRUGMATRIX: Calcium Channel Type L, Benzothiazepine radioligand binding (ligand: [3H] Diltiazem); format: cell membranes, Rattus norvegicus, Wistar, Brain, Membrane; settings: Not Active = under 50% inhibition at 10 µM
Substance-K receptor = target: T1, Substance-K receptor (Homo sapiens, UniProt P21452); format: cell membranes, CHO, Membrane; settings: for IC50: cho; for pIC50: read-out: IC50; for pKi: read-out: Ki; as to all read-outs here: in other assays of this panel Not Active means under 50% inhibition at 10 µM
T1 sequence (P21452 whole entry): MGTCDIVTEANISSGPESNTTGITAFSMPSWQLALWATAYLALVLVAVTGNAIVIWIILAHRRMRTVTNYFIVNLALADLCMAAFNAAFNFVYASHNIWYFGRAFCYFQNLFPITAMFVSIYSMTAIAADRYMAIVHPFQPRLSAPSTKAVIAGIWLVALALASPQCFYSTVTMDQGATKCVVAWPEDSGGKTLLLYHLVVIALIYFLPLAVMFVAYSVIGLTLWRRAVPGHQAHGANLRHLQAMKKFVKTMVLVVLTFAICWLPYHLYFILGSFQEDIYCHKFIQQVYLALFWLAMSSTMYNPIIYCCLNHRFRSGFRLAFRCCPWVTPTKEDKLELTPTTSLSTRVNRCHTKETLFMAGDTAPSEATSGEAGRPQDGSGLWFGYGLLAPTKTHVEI

Thromboxane-A synthase = target: T2, Thromboxane-A synthase (Homo sapiens, UniProt P24557); test: biochemical; format: tissue-based, Platelet; settings: for IC50: platelet;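 as to all read-outs here: enzyme inhibition assay with PGH2 supplied as substrate; in other assays of this panel Not Active means under 50% inhibition at 10 µM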
T2 sequence (P24557 whole entry): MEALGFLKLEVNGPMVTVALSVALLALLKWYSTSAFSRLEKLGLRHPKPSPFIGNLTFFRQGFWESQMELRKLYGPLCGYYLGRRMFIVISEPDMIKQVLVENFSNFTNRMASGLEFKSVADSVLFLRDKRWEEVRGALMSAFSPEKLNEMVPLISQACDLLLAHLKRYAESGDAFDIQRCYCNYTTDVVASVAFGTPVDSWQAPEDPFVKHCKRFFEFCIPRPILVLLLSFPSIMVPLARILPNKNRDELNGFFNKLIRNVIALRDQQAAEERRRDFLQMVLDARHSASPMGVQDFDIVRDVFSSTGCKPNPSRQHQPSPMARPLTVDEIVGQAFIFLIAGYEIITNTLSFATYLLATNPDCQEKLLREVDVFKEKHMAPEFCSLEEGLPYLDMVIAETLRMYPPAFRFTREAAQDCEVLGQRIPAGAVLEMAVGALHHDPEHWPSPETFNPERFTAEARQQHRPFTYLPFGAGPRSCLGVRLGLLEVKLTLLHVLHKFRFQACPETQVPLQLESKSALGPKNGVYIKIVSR

[2] = target: cGMP-specific 3',5'-cyclic phosphodiesterase (Homo sapiens, UniProt O76074); test: DRUGMATRIX: Phosphodiesterase PDE5 enzyme inhibition (substrate: [3H]cGMP + cGMP); format: tissue-based, Platelet; settings: Not Active = under 50% inhibition at 10 µM; for IC50: platelet
[3] = target: Matrix metalloproteinase-9 (Homo sapiens, UniProt P14780); test: biochemical; format: cell-based;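 also: inhibition of isolated MMP-9 enzyme activity toward a synthetic peptide substrate, from the DrugMatrix protease screening panel; in other assays of this panel Not Active means under 50% inhibition at 10 µM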
Chain of Matrix metalloproteinase-9 (P14780 whole entry): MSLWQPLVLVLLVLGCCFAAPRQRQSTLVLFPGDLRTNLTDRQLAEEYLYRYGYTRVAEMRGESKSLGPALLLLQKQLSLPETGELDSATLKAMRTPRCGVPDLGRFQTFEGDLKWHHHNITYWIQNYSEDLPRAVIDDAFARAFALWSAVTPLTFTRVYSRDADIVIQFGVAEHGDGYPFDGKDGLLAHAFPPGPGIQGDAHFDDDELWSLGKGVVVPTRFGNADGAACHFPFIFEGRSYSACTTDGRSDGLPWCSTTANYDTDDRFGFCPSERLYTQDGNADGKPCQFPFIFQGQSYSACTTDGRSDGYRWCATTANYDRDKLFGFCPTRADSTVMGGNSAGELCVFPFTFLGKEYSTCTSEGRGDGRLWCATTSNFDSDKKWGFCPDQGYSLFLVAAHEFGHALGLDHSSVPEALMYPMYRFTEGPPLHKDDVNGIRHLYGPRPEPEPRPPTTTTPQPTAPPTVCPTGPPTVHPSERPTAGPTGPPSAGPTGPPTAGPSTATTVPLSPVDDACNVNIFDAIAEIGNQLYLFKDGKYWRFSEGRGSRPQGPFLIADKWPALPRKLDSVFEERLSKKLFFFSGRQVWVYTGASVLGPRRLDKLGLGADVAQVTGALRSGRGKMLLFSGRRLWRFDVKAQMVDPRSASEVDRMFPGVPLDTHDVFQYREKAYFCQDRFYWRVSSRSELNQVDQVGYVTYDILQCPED

SMILES	IC50 [1]	Ki [1]	IC50 (Substance-K receptor)	IC50 (Thromboxane-A synthase)	IC50 [2]	IC50 [3]	pIC50 ([1]; read-out: IC50)	pKi ([1]; read-out: Ki)	pIC50 (Substance-K receptor)	pKi (Substance-K receptor)	pIC50 (Thromboxane-A synthase; read-out: IC50)	pIC50 ([2]; read-out: IC50)
C[C@H]1O[C@@H](n2cc(F)c(=O)[nH]c2=O)[C@H](O)[C@@H]1O [DOXIFLURIDINE]	Not Active	Not Active	Not Active	Not Active	Not Active	Not Active						
Cn1c(=O)c2c(ncn2CC(O)CO)n(C)c1=O (stereo unspecified) [DYPHYLLINE]	Not Active	Not Active	Not Active	Not Active	Not Active	Not Active						
CC[C@H]1CN2CCc3cc(OC)c(OC)cc3[C@@H]2C[C@@H]1C[C@H]1NCCc2cc(OC)c(OC)cc21 [EMETINE]			Not Active	Not Active	Not Active	Not Active	5.63	5.68				
C[C@@H](CO)NC(=O)[C@@H]1C=C2c3cccc4[nH]cc(c34)C[C@H]2N(C)C1 [ERGONOVINE]	Not Active	Not Active	Not Active	Not Active	Not Active	Not Active						
COC(=O)CCc1ccc(OCC(O)CNC(C)C)cc1 (stereo unspecified) [ESMOLOL]	Not Active	Not Active	Not Active	Not Active	Not Active	Not Active						
CCC1(C)CC(=O)NC1=O (stereo unspecified) [ETHOSUXIMIDE]	Not Active	Not Active	Not Active	Not Active	Not Active	Not Active						
C#C[C@]1(OC(C)=O)CC[C@H]2[C@@H]3CCC4=C[C@@H](OC(C)=O)CC[C@@H]4[C@H]3CC[C@@]21C [ETHYNODIOL DIACETATE]	Not Active	Not Active	Not Active	Not Active	Not Active	Not Active						
COc1cc([C@@H]2c3cc4c(cc3[C@@H](O[C@@H]3O[C@@H]5CO[C@@H](C)O[C@H]5[C@H](O)[C@H]3O)[C@H]3COC(=O)[C@H]23)OCO4)cc(OC)c1O [ETOPOSIDE]	Not Active	Not Active	Not Active	Not Active	Not Active	Not Active						
C=CCc1ccc(O)c(OC)c1 [EUGENOL]	Not Active	Not Active	Not Active	Not Active	Not Active	Not Active						
CC(C(=O)O)c1cccc(Oc2ccccc2)c1 (stereo unspecified) [FENOPROFEN]	Not Active	Not Active	Not Active	Not Active	Not Active	Not Active						
CC(C)(C)NC(=O)[C@H]1CC[C@H]2[C@@H]3CC[C@H]4NC(=O)C=C[C@]4(C)[C@H]3CC[C@]12C [FINASTERIDE]	Not Active	Not Active	Not Active	Not Active	Not Active	Not Active						
COc1ccc2c3c1O[C@H]1C[C@@H](O)C=C[C@@]31CCN(C)C2 [GALANTAMINE]	Not Active	Not Active	Not Active	Not Active	Not Active	Not Active						
Nc1ccn([C@@H]2O[C@H](CO)[C@@H](O)C2(F)F)c(=O)n1 [GEMCITABINE]	Not Active	Not Active	Not Active	Not Active	Not Active	Not Active						
CC(C)=CCC/C(C)=C/CO [GERANIOL]	Not Active	Not Active	Not Active	Not Active	Not Active	Not Active						
N=C(N)NC(=O)Cc1c(Cl)cccc1Cl [GUANFACINE]	Not Active	Not Active	Not Active	Not Active	Not Active	Not Active						
Oc1c(Cl)cc(Cl)c(Cl)c1Cc1c(O)c(Cl)cc(Cl)c1Cl [HEXACHLOROPHENE]	Not Active	Not Active			Not Active	Not Active			5.38	5.86	5.51	
NNc1nncc2ccccc12 [HYDRALAZINE]	Not Active	Not Active	Not Active	Not Active	Not Active	Not Active						

SMILES	IC50 [1]	Ki [1]	IC50 (Substance-K receptor)	IC50 (Thromboxane-A synthase)	IC50 [2]	IC50 [3]	pIC50 ([1]; read-out: IC50)	pKi ([1]; read-out: Ki)	pIC50 (Substance-K receptor)	pKi (Substance-K receptor)	pIC50 (Thromboxane-A synthase; read-out: IC50)	pIC50 ([2]; read-out: IC50)
CC(=O)[C@@]1(O)CC[C@H]2[C@@H]3CCC4=CC(=O)CC[C@]4(C)[C@H]3CC[C@@]21C [HYDROXYPROGESTERONE]	Not Active	Not Active	Not Active	Not Active	Not Active	Not Active						
COC1=C(OC)C(=O)C(CCCCCCCCCCO)=C(C)C1=O [IDEBENONE]	Not Active	Not Active	Not Active	Not Active	Not Active	Not Active						
CC(C)NNC(=O)c1ccncc1 [IPRONIAZID]	Not Active	Not Active	Not Active	Not Active	Not Active	Not Active						
Cc1c(OCC(F)(F)F)ccnc1C[S+]([O-])c1nc2ccccc2[nH]1 (stereo unspecified) [LANSOPRAZOLE]	Not Active	Not Active	Not Active	Not Active	Not Active	Not Active						
O=c1cc(N2CCOCC2)oc2c(-c3ccccc3)cccc12 [LY-294002]	Not Active	Not Active	Not Active	Not Active		Not Active						5.02
COc1ccc2[nH]cc(CCNC(C)=O)c2c1 [MELATONIN]	Not Active	Not Active	Not Active	Not Active	Not Active	Not Active						
NC(=O)C[S+]([O-])C(c1ccccc1)c1ccccc1 (stereo unspecified) [MODAFINIL]	Not Active	Not Active	Not Active	Not Active	Not Active	Not Active						
CCN(CC)CCOCCC1=CCC2CC1C2(C)C (stereo unspecified) [MYRTECAINE]	Not Active	Not Active	Not Active	Not Active	Not Active	Not Active						
O=C(O)c1cccnc1Nc1cccc(C(F)(F)F)c1 [NIFLUMIC ACID]	Not Active	Not Active	Not Active	Not Active	Not Active	Not Active						
O=C(N/N=C/c1ccc([N+](=O)[O-])o1)c1cc([N+](=O)[O-])cc([N+](=O)[O-])c1O [NIFURSOL]	Not Active	Not Active	Not Active	Not Active	Not Active	Not Active						
COC(=O)Nc1nc2ccc(C(=O)c3cccs3)cc2[nH]1 [NOCODAZOLE]	Not Active	Not Active	Not Active	Not Active	Not Active	Not Active						
C#CC1(O)CC[C@H]2[C@@H]3CCC4=CC(=O)CC[C@@H]4[C@H]3CC[C@@]21CC (stereo partly specified) [NORGESTREL]	Not Active	Not Active	Not Active	Not Active	Not Active	Not Active						
COC(=O)Nc1nc2ccc([S+]([O-])c3ccccc3)cc2[nH]1 (stereo unspecified) [OXFENDAZOLE]	Not Active	Not Active	Not Active	Not Active	Not Active	Not Active						
CC(=O)O[C@H]1C(=O)[C@@]2(C)[C@H]([C@H](OC(=O)c3ccccc3)[C@]3(O)C[C@H](OC(=O)[C@H](O)[C@@H](NC(=O)c4ccccc4)c4ccccc4)C(C)=C1C3(C)C)[C@]1(OC(C)=O)CO[C@@H]1C[C@@H]2O [PACLITAXEL]	Not Active	Not Active		Not Active	Not Active	Not Active			5.21	5.69		
C[n+]1ccc(-c2cc[n+](C)cc2)cc1.[Cl-].[Cl-] [PARAQUAT DICHLORIDE]	Not Active	Not Active	Not Active	Not Active	Not Active	Not Active						
CC(C)NCC(O)COc1cccc2[nH]ccc12 (stereo unspecified) [PINDOLOL]	Not Active	Not Active	Not Active	Not Active	Not Active	Not Active						
CCn1cc(C(=O)O)c(=O)c2cnc(N3CCCC3)nc21 [PIROMIDIC ACID]	Not Active	Not Active	Not Active	Not Active	Not Active	Not Active						
